Values quoted from earlier work as cited in patent US20130190388A1, “Methods and Compositions Related to DLK-1 and the P38 MAPK Pathway in Nerve Regeneration” (University of Utah Research Foundation, priority 2008, published 2013).

Tests used:
adult DRG neurons = conditions: inhibiting p38 signaling; reduced from about 65% without inhibitor
[1] = system: Magellan (Phr-1) growth cone phenotype; conditions: Phr-1 (Magellan) mutant neurons

SMILES	regeneration in vitro by adult DRG neurons (adult DRG neurons) [%]	growth cone phenotype (expanded region of disorganized microtubules) [1]
C[S+]([O-])c1ccc(-c2nc(-c3ccncc3)c(-c3ccc(F)cc3)[nH]2)cc1 (centres unmarked) [SB203580]	10	
CC(=O)O[C@H]1C(=O)[C@@]2(C)[C@H]([C@H](OC(=O)c3ccccc3)[C@]3(O)C[C@H](OC(=O)[C@H](O)[C@@H](NC(=O)c4ccccc4)c4ccccc4)C(C)=C1C3(C)C)[C@]1(OC(C)=O)CO[C@@H]1C[C@@H]2O [Taxol]		rescued
